{"source": "patent US8618095B2", "about": "(Rigel Pharmaceuticals, Inc., priority 2010, dated 2013)", "note": "Counter-ions that a name gives are not always drawn."}
{"system": "Human mast cells (CHMC)", "assay": "LD Tryptase release assay in CHMC (mast cell activation induced by FcγR cross-linking)", "format": "cell-based", "details": "Homo sapiens, Mast cell, anti-IgG stimulation, activity of tryptase released upon degranulation", "description": "(§1) Compounds were assayed for inhibition of mast cell activation induced by FcγR cross-linking by measuring the activity of tryptase released upon degranulation as follows:\n(§2) Human mast cells were cultured and differentiated from […] progenitor cell as described in U.S. Patent Publication No. 2005-234049, incorporated herein by reference. For example, 65 μL of various concentrations of the compound to be assayed were prepared in MT (137 mM NaCl, 2.7 mM KCl, 1.8 mM CaCl2, 1.0 mM MgCl2, 5.6 mM Glucose, 20 mM Hepes (pH 7.4), 0.1% Bovine Serum Albumin, (Sigma A4503)) containing 2% MeOH and 1% DMSO, or control buffer were added to duplicate 96-well V-bottom plates. Pelleted and re-suspended (in warm MT) CHMC cells (65 μL) were added to each 96-well plate, mixed and incubated for 1 hour at 37° C. 25 μl of 6× anti-IgG Rabbit anti-human IgG, Affinity purified (Bethyl Laboratories Cat No. A80-105A3) final concentration 1 μg/mL, was added to the test wells. MT (25 μL) was added to control wells. After a 60-minute incubation at 37° C., cells and cell debris were pelleted by centrifugation at 1000 rpm for 10 min and tryptase and leukotriene C4 levels were measured.\n(§3) To measure tryptase levels, 25 μL of supernatant from each well was transferred to a fresh 96-well black bottom plate, to which 100 μL of fresh tryptase substrate solution [(Z-Ala-Lys-Arg-AMC2TFA; Enzyme Systems Products, #AMC-246)] 1:2000 in tryptase assay buffer [0.1 M Hepes (pH 7.5), 10% w/v Glycerol, 10 μM Heparin (Sigma H-4898) 0.01% NaN3] was added. After 30 minute incubation at room temperature, the optical density of the plates is measured at 355 nm/460 nm on a spectrophotometric plate reader. Table 1 provides the IC50 values.\n(§4) Compounds of the disclosure were assayed for their ability to inhibit mast cell activation induced by FcγR cross-linking by measuring the activity of tryptase released upon degranulation. The IC50 values for the LD Tryptase assay are presented in Table 2, in which “0” is >100 μM; “A” is 1-100 μM; “B” is 0.5-1 μM; “C” is 0.1-0.5 μM; and “D” is less than 0.1 μM: […]", "units": {"IC50": "nM"}}
{"smiles": "CC1(C)Oc2ccc(Nc3nc(Nc4ccc(N5CCNC(=O)C5)cc4)ncc3F)nc2NC1=O", "note": "[Compound 151, N4-(2,2-dimethyl-3,4-dihydro-3-oxo-2H-pyrido[3,2-b][1,4]oxazin-6-yl)-5-fluoro-N2-[4-(3-oxopiperazin-1-yl)phenyl]-2,4-pyrimidinediamine]", "IC50": "100 to 500"}
{"smiles": "CC1(C)Oc2ccc(Nc3nc(Nc4ccc5nc(-c6ccncc6)[nH]c5c4)ncc3F)nc2NC1=O", "note": "[Compound 132, N4-(2,2-dimethyl-3,4-dihydro-3-oxo-2H-pyrido[3,2-b][1,4]oxazin-6-yl)-5-fluoro-N2-[2-(pyridin-4-yl)-1H-benzo[d]imidazol-6-yl]-2,4-pyrimidinediamine]", "IC50": "< 100"}
{"smiles": "CC1(C)Oc2ccc(Nc3nc(Nc4ccc(N5CCC(N6CCOCC6)CC5)nc4)ncc3F)nc2NC1=O", "note": "[Compound 60, N4-(2,2-dimethyl-3,4-dihydro-3-oxo-2H-pyrido[3,2-b][1,4]oxazin-6-yl)-5-fluoro-N2-[6-(4-morpholinopiperidin-1-yl)pyridin-3-yl]-2,4-pyrimidinediamine]", "IC50": "100 to 500"}
{"smiles": "CN(C[C@H]1CCCO1)c1ccc(Nc2ncc(F)c(Nc3ccc4c(n3)NC(=O)CO4)n2)cn1", "note": "[Compound 110, N4-(3,4-dihydro-3-oxo-2H-pyrido[3,2-b][1,4]oxazin-6-yl)-5-fluoro-N2-[6-(((R)-methyl(tetrahydrofuran-2-yl)methyl)amino)pyridin-3-yl]-2,4-pyrimidinediamine]", "IC50": "1000 to 100000"}
{"smiles": "CC1(C)Oc2ccc(Nc3nc(Nc4ccc(N5CCC(F)(F)CC5)c(F)c4)ncc3F)nc2NC1=O", "note": "[Compound 30, N4-(2,2-dimethyl-3,4-dihydro-3-oxo-2H-pyrido[3,2-b][1,4]oxazin-6-yl)-5-fluoro-N2-[3-fluoro-4-(4,4-difluoro-1-piperidinyl)phenyl]-2,4-pyrimidinediamine]", "IC50": "1000 to 100000"}
{"smiles": "CC1(C)Oc2ccc(Nc3nc(Nc4ccc5ccncc5c4)ncc3F)nc2NC1=O", "note": "[Compound 133, N4-(2,2-dimethyl-3,4-dihydro-3-oxo-2H-pyrido[3,2-b][1,4]oxazin-6-yl)-5-fluoro-N2-(isoquinolin-7-yl)-2,4-pyrimidinediamine]", "IC50": "< 100"}
{"smiles": "CC(C)OC1CCN(c2ccc(Nc3ncc(F)c(Nc4ccc5c(n4)NC(=O)C(C)(C)O5)n3)cc2)CC1", "note": "[Compound 86, N4-(2,2-dimethyl-3,4-dihydro-3-oxo-2H-pyrido[3,2-b][1,4]oxazin-6-yl)-5-fluoro-N2-[4-(4-isopropoxypiperidin-1-yl)phenyl]-2,4-pyrimidinediamine]", "IC50": "1000 to 100000"}
{"smiles": "CC1(C)Oc2ccc(Nc3nc(Nc4ccc(C5CCOCC5)nc4)ncc3F)nc2NC1=O", "note": "[Compound 22, N4-(2,2-dimethyl-3,4-dihydro-3-oxo-2H-pyrido[3,2-b][1,4]oxazin-6-yl)-5-fluoro-N2-[6-tetrahydropyranopyridin-3-yl]-2,4-pyrimidinediamine]", "IC50": "100 to 500"}
{"smiles": "CC1(C)CN(c2ncc(Nc3ncc(F)c(Nc4ccc5c(n4)NC(=O)C(C)(C)O5)n3)cc2F)CCO1", "note": "[Compound 15, N4-(2,2-dimethyl-3,4-dihydro-3-oxo-2H-pyrido[3,2-b][1,4]oxazin-6-yl)-5-fluoro-N2-[5-fluoro-6-(2,2-dimethylmorpholino)pyridin-3-yl]-2,4-pyrimidinediamine]", "IC50": "1000 to 100000"}
{"smiles": "C[C@H]1CN(c2ccc(Nc3ncc(F)c(Nc4ccc5c(n4)NC(=O)CO5)n3)cc2)CCO1", "note": "[Compound 80]", "IC50": "< 100"}
{"smiles": "CN(c1ccc(Nc2ncc(F)c(Nc3ccc4c(n3)NC(=O)C(C)(C)O4)n2)cn1)C1CCOCC1", "note": "[Compound 143, N4-(2,2-dimethyl-3,4-dihydro-3-oxo-2H-pyrido[3,2-b][1,4]oxazin-6-yl)-5-fluoro-N2-[6-(methyl(tetrahydro-2H-pyran-4-yl)amino)pyridin-3-yl]-2,4-pyrimidinediamine]", "IC50": "< 100"}
{"smiles": "CCN(CC)C1CCN(c2ccc(Nc3ncc(F)c(Nc4ccc5c(n4)NC(=O)C(C)(C)O5)n3)cn2)C1", "note": "(stereo not shown) [Compound 66, N4-(2,2-dimethyl-3,4-dihydro-3-oxo-2H-pyrido[3,2-b][1,4]oxazin-6-yl)-5-fluoro-N2-[6-(3-(diethylamino)pyrrolidin-1-yl)pyridin-3-yl]-2,4-pyrimidinediamine]", "IC50": "500 to 1000"}
{"smiles": "CC1(C)Oc2ccc(Nc3nc(Nc4ccc(N5CCC6(CC5)COC6)cc4)ncc3F)nc2NC1=O", "note": "[Compound 158, N4-(2,2-dimethyl-3,4-dihydro-3-oxo-2H-pyrido[3,2-b][1,4]oxazin-6-yl)-5-fluoro-N2-[4-(2-oxa-7-azaspiro[3.5]nonan-7-yl)phenyl]-2,4-pyrimidinediamine]", "IC50": "100 to 500"}
{"smiles": "C[C@H]1COCCN1c1ccc(Nc2ncc(F)c(Nc3ccc4c(n3)NC(=O)C(C)(C)O4)n2)cc1", "note": "[Compound 120, N4-(2,2-dimethyl-3,4-dihydro-3-oxo-2H-pyrido[3,2-b][1,4]oxazin-6-yl)-5-fluoro-N2-[4-((3S)-3-methylmorpholino)phenyl]-2,4-pyrimidinediamine]", "IC50": "100 to 500"}
{"smiles": "CN(C)c1ccc(Nc2ncc(F)c(Nc3ccc4c(n3)NC(=O)C(C)(C)O4)n2)cn1", "note": "[Compound 147, N4-(2,2-dimethyl-3,4-dihydro-3-oxo-2H-pyrido[3,2-b][1,4]oxazin-6-yl)-5-fluoro-N2-[6-(dimethylamino)pyridin-3-yl]-2,4-pyrimidinediamine]", "IC50": "100 to 500"}
{"smiles": "O=C1COc2ccc(Nc3nc(Nc4ccc(N5CC[C@H](O)C5)nc4)ncc3F)nc2N1", "note": "[Compound 63, N4-(3,4-dihydro-3-oxo-2H-pyrido[3,2-b][1,4]oxazin-6-yl)-5-fluoro-N2-[6-((3S)-3-hydroxypyrrolidin-1-yl)pyridin-3-yl]-2,4-pyrimidinediamine]", "IC50": "100 to 500"}
{"smiles": "COc1cc(Nc2ncc(F)c(Nc3ccc4c(n3)NC(=O)CO4)n2)ccc1N1CCOCC1", "note": "[Compound 33, N4-(3,4-dihydro-3-oxo-2H-pyrido[3,2-b][1,4]oxazin-6-yl)-5-fluoro-N2-[3-methoxy-4-morpholinophenyl]-2,4-pyrimidinediamine]", "IC50": "< 100"}
{"smiles": "CC1(C)CN(c2ccc(Nc3ncc(F)c(Nc4ccc5c(n4)NC(=O)CO5)n3)cc2)CCO1", "note": "[Compound 115, N4-(3,4-dihydro-3-oxo-2H-pyrido[3,2-b][1,4]oxazin-6-yl)-N2-[4-(2,2-dimethylmorpholino)phenyl]-5-fluoro-2,4-pyrimidinediamine]", "IC50": "< 100"}
{"smiles": "CC1(C)Oc2ccc(Nc3nc(Nc4ccc(N5CCOCC5)c(OC(F)F)c4)ncc3F)nc2NC1=O", "note": "[Compound 25, N4-(2,2-dimethyl-3,4-dihydro-3-oxo-2H-pyrido[3,2-b][1,4]oxazin-6-yl)-5-fluoro-N2-[3-difluoromethoxy-4-morpholinophenyl]-2,4-pyrimidinediamine]", "IC50": "1000 to 100000"}
{"smiles": "CN(C[C@H]1CCCO1)c1ccc(Nc2ncc(F)c(Nc3ccc4c(n3)NC(=O)C(C)(C)O4)n2)cn1", "note": "[Compound 111]", "IC50": "100 to 500"}
{"smiles": "C[C@H]1CN(c2ccc(Nc3ncc(F)c(Nc4ccc5c(n4)NC(=O)CO5)n3)cn2)CCO1", "note": "[Compound 93, N4-(3,4-dihydro-3-oxo-2H-pyrido[3,2-b][1,4]oxazin-6-yl)-5-fluoro-N2-[6-((2S)-2-methylmorpholino)pyridin-3-yl]-2,4-pyrimidinediamine]", "IC50": "100 to 500"}
{"smiles": "[2H]C1([2H])OC([2H])([2H])C([2H])([2H])N(c2ccc(Nc3ncc(F)c(Nc4ccc5c(n4)NC(=O)CO5)n3)cc2)C1([2H])[2H]", "note": "[Compound 130, N4-(2,2-dimethyl-3,4-dihydro-3-oxo-2H-pyrido[3,2-b][1,4]oxazin-6-yl)-5-fluoro-N2-[4-(2,2,3,3,5,5,6,6-d8-morpholino)phenyl]-2,4-pyrimidinediamine]", "IC50": "< 100"}
{"smiles": "CC1(C)CN(c2ccc(Nc3ncc(F)c(Nc4ccc5c(n4)NC(=O)CO5)n3)cn2)CCO1", "note": "[Compound 9, N4-(3,4-dihydro-3-oxo-2H-pyrido[3,2-b][1,4]oxazin-6-yl)-5-fluoro-N2-[6-(2,2-dimethylmorpholino)pyridin-3-yl]-2,4-pyrimidinediamine]", "IC50": "100 to 500"}
{"system": "Human mast cells (CHMC)", "assay": "LD Tryptase release assay in CHMC (mast cell activation induced by FcγR cross-linking)", "format": "cell-based", "details": "anti-IgG stimulation, activity of tryptase released upon degranulation", "description": "as §1, §2, §3, §4", "units": {"IC50": "nM"}}
{"smiles": "CC1(C)Oc2ccc(Nc3nc(Nc4ccc(N5CCOCC5)nc4)ncc3F)nc2NC1=O", "note": "[Compound 140, N4-(2,2-dimethyl-3,4-dihydro-3-oxo-2H-pyrido[3,2-b][1,4]oxazin-6-yl)-5-fluoro-N2-[6-morpholinopyridin-3-yl]-2,4-pyrimidinediamine hydrochloric acid salt]", "IC50": "500 to 1000"}
{"smiles": "CC1(C)Oc2ccc(Nc3nc(Nc4ccc(N5CCOCC5)nc4)ncc3F)nc2NC1=O", "note": "[Compound 142, N4-(2,2-dimethyl-3,4-dihydro-3-oxo-2H-pyrido[3,2-b][1,4]oxazin-6-yl)-5-fluoro-N2-[6-morpholinopyridin-3-yl]-2,4-pyrimidinediamine ethanesulfonic acid salt]", "IC50": "100 to 500"}
